A short description of series [1]: Permeability across apical to basolateral side in human Caco2 cells. To be noted: Caco-2, read-out: permeability. The format is ADME, cell-based.
Series [2] has as its system Mus musculus. In words: Suppression of IL-22 RNA expression in skin region of mouse model of IL-23 induced acanthosis model of psoriasis at 3 mg/kg, po BID for 10 days measured every other day relative to control. The note with it: 240 h. Type of series: functional.
Series [3] has as its target T1, Nuclear receptor ROR-gamma (Mus musculus, UniProt P51450).
T1 sequence (P51450 whole entry): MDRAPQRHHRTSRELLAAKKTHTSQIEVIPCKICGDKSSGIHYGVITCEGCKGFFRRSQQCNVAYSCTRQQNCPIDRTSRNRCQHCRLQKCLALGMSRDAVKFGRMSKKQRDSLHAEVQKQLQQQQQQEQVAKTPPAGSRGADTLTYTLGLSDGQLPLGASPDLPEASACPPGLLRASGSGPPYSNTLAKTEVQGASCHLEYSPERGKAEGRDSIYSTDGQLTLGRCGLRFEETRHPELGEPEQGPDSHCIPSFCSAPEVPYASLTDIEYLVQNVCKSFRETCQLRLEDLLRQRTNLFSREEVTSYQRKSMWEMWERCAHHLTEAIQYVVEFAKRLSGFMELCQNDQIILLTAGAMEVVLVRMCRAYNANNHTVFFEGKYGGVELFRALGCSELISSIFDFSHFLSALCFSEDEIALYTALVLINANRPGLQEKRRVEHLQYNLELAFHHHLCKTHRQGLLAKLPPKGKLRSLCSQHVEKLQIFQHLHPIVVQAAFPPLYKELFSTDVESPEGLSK
As to the kind of experiment: Inverse agonist activity at RORgammat in mouse cells by mTh17 assay. The format is cell-based.

The next series addresses T2, Cytochrome P450 2C8 (Homo sapiens, UniProt P10632).
T2 sequence (P10632 whole entry): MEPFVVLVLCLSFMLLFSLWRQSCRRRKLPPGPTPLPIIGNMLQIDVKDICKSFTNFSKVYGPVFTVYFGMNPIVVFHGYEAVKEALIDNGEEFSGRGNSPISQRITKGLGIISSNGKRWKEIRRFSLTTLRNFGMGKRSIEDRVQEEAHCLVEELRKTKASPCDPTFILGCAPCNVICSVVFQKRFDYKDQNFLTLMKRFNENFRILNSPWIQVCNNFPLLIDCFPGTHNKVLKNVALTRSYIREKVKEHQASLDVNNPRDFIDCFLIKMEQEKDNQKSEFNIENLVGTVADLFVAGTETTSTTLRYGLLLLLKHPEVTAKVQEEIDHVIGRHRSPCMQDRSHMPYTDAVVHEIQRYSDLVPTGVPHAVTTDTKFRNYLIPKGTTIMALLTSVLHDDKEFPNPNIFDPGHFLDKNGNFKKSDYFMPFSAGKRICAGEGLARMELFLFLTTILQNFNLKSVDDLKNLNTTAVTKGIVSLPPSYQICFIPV
As to the kind of experiment: Inhibition of recombinant CYP2C8 (unknown origin). The format is ADME.

The subject of series [4] is Mus musculus. In words: Suppression of ear thickness in mouse model of IL-23 induced acanthosis model of psoriasis at 30 mg/kg, po BID for 10 days measured every other day relative to control. Type of series: functional. To be noted: 240 h.
Series [5] in a line: Oral bioavailability in rat at 4 mg/kg. Type of series: ADME, organism-based. The note with it: in vivo.
A short description of series [6]: Half life in mouse liver microsomes. Type of series: ADME, Microsome.
A short description of series [7]: Drug level in Balb/c mouse at 10 mg/kg, po after 24 hrs. The note with it: in vivo, read-out: Drug uptake. Type of series: ADME, organism-based.
Series [8] concerns the target T3, Nuclear receptor subfamily 1 group I member 2 (Homo sapiens, UniProt O75469).
T3 sequence (O75469 whole entry): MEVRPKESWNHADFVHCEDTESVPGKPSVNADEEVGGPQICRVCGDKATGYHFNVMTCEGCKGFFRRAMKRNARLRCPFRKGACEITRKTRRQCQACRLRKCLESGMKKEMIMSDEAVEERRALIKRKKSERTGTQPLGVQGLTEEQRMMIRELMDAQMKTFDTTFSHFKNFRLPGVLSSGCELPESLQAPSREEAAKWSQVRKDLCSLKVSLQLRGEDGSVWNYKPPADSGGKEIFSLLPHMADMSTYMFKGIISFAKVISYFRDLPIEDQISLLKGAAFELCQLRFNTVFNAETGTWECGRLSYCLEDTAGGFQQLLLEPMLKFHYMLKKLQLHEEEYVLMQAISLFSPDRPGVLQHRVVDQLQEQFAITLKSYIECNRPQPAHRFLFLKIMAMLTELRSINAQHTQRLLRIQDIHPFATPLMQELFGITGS
In words: Agonist activity at PXR (unknown origin) by Gal4-Luc reporter gene assay).

Series [9] has as its system Mus musculus. As to the kind of experiment: Suppression of IL-17F production in mouse stimulated at time -24 hrs with IL-2 and at time 0, 7, and 24 hrs with IL-2/IL-23 mixture dosed with compound at 0 and 24 hrs and measured at 30 hrs.
The target of series [10] is T4, Nuclear receptor ROR-alpha (Homo sapiens, UniProt P35398).
T4 sequence (P35398 whole entry): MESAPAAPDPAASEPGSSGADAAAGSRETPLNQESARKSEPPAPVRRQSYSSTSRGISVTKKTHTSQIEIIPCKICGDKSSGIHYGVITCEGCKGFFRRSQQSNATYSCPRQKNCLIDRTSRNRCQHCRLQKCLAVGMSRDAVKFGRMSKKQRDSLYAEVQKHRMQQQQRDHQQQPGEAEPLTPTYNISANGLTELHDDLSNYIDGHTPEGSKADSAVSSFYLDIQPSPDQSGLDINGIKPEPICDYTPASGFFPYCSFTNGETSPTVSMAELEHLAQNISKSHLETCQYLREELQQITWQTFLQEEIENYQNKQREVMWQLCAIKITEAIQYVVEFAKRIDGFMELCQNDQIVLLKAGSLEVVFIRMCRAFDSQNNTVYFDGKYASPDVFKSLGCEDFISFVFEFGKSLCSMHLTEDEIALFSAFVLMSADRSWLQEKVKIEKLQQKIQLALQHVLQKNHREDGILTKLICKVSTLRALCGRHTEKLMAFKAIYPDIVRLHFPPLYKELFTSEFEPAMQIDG
In words: Agonist activity at RORalpha (unknown origin) by Gal4-Luc reporter gene assay.

The nature of series [11]: Total AUC in rat at 4 mg/kg, po. Details: dose 4 mg/kg, route oral, time AUCmax. Type of series: ADME, organism-based. To be noted: in vivo.
Series [12] can be described thus: Unbound fraction in mouse serum. Type of series: ADME, cell-free.

pEC50, pIC50: −log10 of the molar value.

Consider `O=C(N1CC[C@@]2(S(=O)(=O)c3ccc(F)cc3)c3ccc(C(F)(C(F)(F)F)C(F)(F)F)cc3CC[C@@H]12)C1(O)CCS(=O)(=O)CC1`, for which the Papp A→B in [1] turned out to be 13 ×10⁻⁶ cm/s. Moreover, in the series on Mus musculus [2], the inhibition in vivo at 3 mg/kg was 76%. Besides, the pEC50 in series [3] was 7.89; in series [8], less than 4.30; with Mus musculus [9], 7.06; in series [10], less than 5.00. The pIC50 on Cytochrome P450 2C8 is 4.82. 30 mg/kg produced 57% inhibition in vivo in the series with Mus musculus [4]. This molecule showed a bioavailability in [5] of 50%. The molecule further had a half-life in series [6] greater than 2 h. For the same molecule, the concentration at 24 h in series [7] was 1100 nM. The molecule further had an AUC in series [11] of 17 µM·h. Also, in series [12], the fraction unbound was 0.007.
